Measurements reported in patent US20100035822A1, “PROLINE-RICH PEPTIDES, PHARMACEUTICAL COMPOSITION, USE OF ONE OR MORE PEPTIDES AND METHOD OF TREATMENT” (priority 2006, published 2010).

Tests used:
[1] = target: T1, argininosuccinate synthase (AsS) (Mus musculus, UniProt P16460); assay: Affinity chromatography of mouse kidney extract on peptide column; identification of the bound protein; assay type: binding; conditions: affinity column with SEQ ID NO 7 as ligand; crude mouse kidney extract
T1 construct: Cytosolic and membrane fractions of the renal extract (100 mg/ml total protein) were applied to separate columns; from tissue; host or cells: Balb-c mouse kidney, cytosolic and membrane fractions
T1 sequence (P16460 1-412): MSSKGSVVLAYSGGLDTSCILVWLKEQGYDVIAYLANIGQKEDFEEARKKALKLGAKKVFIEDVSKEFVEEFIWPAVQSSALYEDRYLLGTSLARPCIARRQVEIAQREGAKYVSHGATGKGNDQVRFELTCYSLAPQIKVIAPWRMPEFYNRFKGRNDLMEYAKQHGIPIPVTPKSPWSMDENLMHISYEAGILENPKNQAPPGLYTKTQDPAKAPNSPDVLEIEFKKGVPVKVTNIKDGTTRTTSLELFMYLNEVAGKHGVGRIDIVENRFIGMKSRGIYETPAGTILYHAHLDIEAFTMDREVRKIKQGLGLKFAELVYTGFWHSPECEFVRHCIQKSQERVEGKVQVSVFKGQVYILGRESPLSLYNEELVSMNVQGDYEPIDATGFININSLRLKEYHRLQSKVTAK
Description: Starting material were the cytosolic and plasma membrane crude extracts of mouse kidney cells homogenized in the buffer 10 mM Tris-HCl pH 7.5, 25 mM saccharose, 1 mM EDTA, and 1 mM PMSF (cytosolic fraction), or 1% Triton X-100 (plasma membrane fraction). Supernatants were dialyzed in 0.2 M NaHCO3, 0.5 M NaCl, pH 8.3, and separately applied to the affinity chromatography column Hitrap NHS-activated (GE Healthcare) coupled to 5 mg of peptide SEQ ID NO 7.
Preparing affinity columns. Columns were washed three times with 2 ml 1 mM HCl before homogeneous preparations of SEQ ID NO 7 (5 mg in 1 ml 0.2 M NaHCO3, 0.5 M NaCl, pH 8.3) were applied. After 30 min incubation at room temperature, peptides had been coupled, and the column was inactivated with buffer A (0.5 M ethanolamine, 0.5 M NaCl, pH 8.3), and washed with 0.2 M NaHCO3, 0.5 M NaCl, pH 8.3, and stored at 4° C. in 50 mM Na2HPO4, 0.1%, NaN3, pH 7.0. The columns were called HiTrap-SEQ. ID NO 7. […]
Affinity chromatography and analysis of the retained proteins by SDS-PAGE. […] Protein concentration (mg/ml) was determined by the method of Bradford (Bradford, M. M. A rapid and sensitive method for the quantitation of microgram quantities of protein utilizing the principle of protein-dye binding. Anal. Biochem. 72: 248-254, 1976) with the Protein Assay reagent from BioRad. […]

[2] = test system: total kidney protein extract; assay: NO production in total kidney protein extract; assay type: biochemical, mouse; conditions: kidney homogenate of mice; 0.01 to 50 μmol, preferentially 0.5 to 2 μmol peptide
Description: The release of NO was evaluated by means of nitrate and nitrit accumulation in total kidney protein extract of male Swiss mice weighing 30-35 g, as described by Wu and Yen (Wu C C and Yen M H. Higher level of plasma nitric oxide in spontaneously hypertensive rats. Am. J. Hypertension 12: 476-482, 1999). Animals were subjected to perfusion with 0.9% saline solution containing heparin (1:1000). Kidneys were collected and homogenized in cold 50 mM Tris-HCl, 0.1 mM EDTA, 0.1 mM EGTA, 12 mM β-mercaptoethanol, and 1 mM phenylmethylsulphonyl fluoride, pH 7.4 buffer in a homogenizer (Polytron PT MR 3000, Kinematic AG, Littau). Homogenates were incubated with 10 nM, 1 μM, or 10 μM peptide SEQ ID NO 8 in a final volume of 500 μl for 1 hour. Trichloracetic acid (1%) was added at 4° C., and after 20 minutes the mixture was centrifuged at 13.000 g for 7 min at 4° C. A saturated solution of vanadium chloride (VCl3) in 1 M HCl at 90° C. was added to the supernatant, and the concentration of NO was determined by gas chemiluminescence by means of the reaction of NO with ozone in a NO analyzer (NOA^TM280; Sievers Inc.). The concentration of nitrate was determined using a standard curve of NaNO3 and the Bag software 2.2 (Sievers Instruments Inc.).

With <ENWPHPQIPP [SEQ ID NO 8] the “binding to the approx. 46 kDa protein (AsS) of mouse kidney extract” value [1] was “capable of selectively binding” and the “increase of nitrite production (generated from NO)” value [2] was 5 fold.
